Patent EP1925205A1, “Plant propagation material treatment nematicides” (priority 2006, dated 2008)
Where two headings read alike, the source gives them in different places.

Key:
Format in all cases: in vivo, Meloidogyne incognita
Meloidogyne spp. = assay: General statement of effectiveness against nematodes by plant propagation material treatment
M. incognita [1] = details: for Efficacy (%): DS formulation, inoculated 14 days after sowing, galling 28 days after inoculation; for average rating (gall rating, score 0.1-7): tomato, untreated control 4.6
M. incognita [2] = assay: Example 5: nematode control by tomato seed treatment, root galling (index adapted from Zeck); details: for Efficacy (%): tomato seeds, DS formulation, inoculated 14 days after sowing, galling 28 days after inoculation
M. incognita [3] = details: for Efficacy (%): DS formulation, inoculated 14 days after sowing, galling 28 days after inoculation; for average rating (gall rating, score 0.1-7): tomato, untreated control 4.1
M. incognita [4] = assay: Example 6: nematode control by cotton seed treatment, root galling (index adapted from Zeck); details: for Efficacy (%): cotton seeds, DS formulation, inoculated 14 days after sowing, galling 28 days after inoculation; for average rating (gall rating, score 0.1-7): cotton, untreated control 2.0
[5] = tomato seeds, 0.03 mg a.i./seed
[6] = tomato seeds, 0.01 mg a.i./seed

## CNC(=O)O/N=C/C(C)(C)SC [Aldicarb]
Meloidogyne spp.
  effective against Meloidogyne spp., for example, Meloidogyne incognita: effective
M. incognita [1]; [5]
  Efficacy (%): 5.8%
M. incognita [1]; tomato seeds, 0.1 mg a.i./seed
  Efficacy (%): 5.8%
M. incognita [1]; tomato seeds, 0.3 mg a.i./seed
  Efficacy (%): 11.2%
M. incognita [1]; tomato seeds, 1 mg a.i./seed
  Efficacy (%): 16.7%
M. incognita [1]; 1 mg /seed
  average rating (gall rating, score 0.1-7): 3.8

## CCCCNC(=O)n1c(NC(=O)OC)nc2ccccc21 [Benomyl]
M. incognita [2]; 0.1 mg a.i./seed
  Efficacy (%): 0%
M. incognita [2]; 0.3 mg a.i./seed
  Efficacy (%): 2.0%
M. incognita [2]; 1 mg a.i./seed
  Efficacy (%): 0%
M. incognita [2]; tomato, 1 mg a.i./seed, untreated control 4.2
  average rating (gall rating, score 0.1-7): The untreated control plants have an average rating of 4.2. Benomyl at 1 mg a.i. /seed is also rated at 4.2.

## CCOP(=O)(SC(C)CC)SC(C)CC (centres unmarked) [Cadusafos]
M. incognita [3]; tomato seeds, 1 mg a.i./seed
  germination of treated seeds: did not germinate
M. incognita [3]; [6]
  Efficacy (%): 0%
M. incognita [3]; [5]
  Efficacy (%): 0%
M. incognita [3]; tomato seeds, 0.1 mg a.i./seed
  Efficacy (%): 2.0%
M. incognita [3]; tomato seeds, 0.3 mg a.i./seed
  Efficacy (%): 14.3%
M. incognita [3]; 0.3 mg /seed
  average rating (gall rating, score 0.1-7): 3.5
Meloidogyne spp.
  effective against Meloidogyne spp., for example, Meloidogyne incognita: effective
M. incognita [4]; 0.01 mg a.i./seed
  Efficacy (%): 0%
M. incognita [4]; 0.03 mg a.i./seed
  Efficacy (%): 0%
M. incognita [4]; 0.1 mg a.i./seed
  Efficacy (%): 8.3%
M. incognita [4]; 0.3 mg a.i./seed
  Efficacy (%): 77.5%
M. incognita [4]; 1 mg a.i./seed
  Efficacy (%): 86.7%
  average rating (gall rating, score 0.1-7): 0.3
M. incognita [4]; 0.3 mg /seed
  average rating (gall rating, score 0.1-7): 0.5

## CCOP(=S)(OCC)Oc1nc(Cl)c(Cl)cc1Cl [Chlorpyrifos]
M. incognita [3]; [6]
  Efficacy (%): 0%
M. incognita [3]; [5]
  Efficacy (%): 0%
M. incognita [3]; tomato seeds, 0.1 mg a.i./seed
  Efficacy (%): 0%
M. incognita [3]; tomato seeds, 0.3 mg a.i./seed
  Efficacy (%): 0%
M. incognita [3]; tomato seeds, 1 mg a.i./seed
  Efficacy (%): 0%
M. incognita [3]; 1 mg /seed
  average rating (gall rating, score 0.1-7): 4.3

## CCOP(=S)(OCC)Oc1cc(C)nc(C(C)C)n1 [Diazinon]
M. incognita [3]; [6]
  Efficacy (%): 0%
M. incognita [3]; [5]
  Efficacy (%): 0%
M. incognita [3]; tomato seeds, 0.1 mg a.i./seed
  Efficacy (%): 0%
M. incognita [3]; tomato seeds, 0.3 mg a.i./seed
  Efficacy (%): 0%
M. incognita [3]; tomato seeds, 1 mg a.i./seed
  Efficacy (%): 0%
M. incognita [3]; 1 mg /seed
  average rating (gall rating, score 0.1-7): 4.2

## CCOP(=S)(OCC)Oc1ccc(Cl)cc1Cl [Dichlofenthion]
M. incognita [3]; [6]
  Efficacy (%): 0%
M. incognita [3]; [5]
  Efficacy (%): 0%
M. incognita [3]; tomato seeds, 0.1 mg a.i./seed
  Efficacy (%): 0%
M. incognita [3]; tomato seeds, 0.3 mg a.i./seed
  Efficacy (%): 0%
M. incognita [3]; tomato seeds, 1 mg a.i./seed
  Efficacy (%): 0%
M. incognita [3]; 1 mg /seed
  average rating (gall rating, score 0.1-7): 4.7

## CNC(=O)CSP(=S)(OC)OC [Dimethoate]
M. incognita [3]; [6]
  Efficacy (%): 0%
M. incognita [3]; [5]
  Efficacy (%): 2.0%
M. incognita [3]; tomato seeds, 0.1 mg a.i./seed
  Efficacy (%): 2.0%
M. incognita [3]; tomato seeds, 0.3 mg a.i./seed
  Efficacy (%): 0%
M. incognita [3]; tomato seeds, 1 mg a.i./seed
  Efficacy (%): 0%
M. incognita [3]; 1 mg /seed
  average rating (gall rating, score 0.1-7): 4.3

## CCCSP(=O)(OCC)SCCC [Ethoprofos, Ethoprophos]
M. incognita [1]; tomato seeds, 1 mg a.i./seed
  germination of treated seeds: did not germinate
M. incognita [1]; [5]
  Efficacy (%): 4.0%
M. incognita [1]; tomato seeds, 0.1 mg a.i./seed
  Efficacy (%): 2.2%
M. incognita [1]; tomato seeds, 0.3 mg a.i./seed
  Efficacy (%): 2.2%
M. incognita [1]; 0.3 mg /seed
  average rating (gall rating, score 0.1-7): 4.5
